In the NIST ThermoML archive (doi:10.1021/je101144k):
Numbers after ± are expanded uncertainties.

Tests used:
[1] = wn = mass fraction of the nth substance listed; settings: for surface tension liquid-gas: Maximal bubble pressure; for mass density / viscosity: 101 kPa, Liquid; for mass density: Pycnometric method
[2] = molar heat capacity at constant pressure; wn = mass fraction of the nth substance listed; settings: 101 kPa, Liquid, Small sample (50 mg) DSC

N[C@@H](CO)C(=O)[O-].[K+] [potassium L-serinate] + O
Settings	mass density, [1] [kg/m3]	molar heat capacity at constant pressure, [2] [J/K/mol]	surface tension liquid-gas, [1] [mN/m]	viscosity, [1] [mPa·s]
298.15 K, w1 = 0.072	1034.7 ± 0.9	–	73.2 ± 0.6	1.121 ± 0.034
298.15 K, w1 = 0.143	1068.7 ± 1.1	–	74.1 ± 0.6	1.372 ± 0.039
298.15 K, w1 = 0.286	1137 ± 1.6	–	77.9 ± 0.7	1.913 ± 0.052
298.15 K, w1 = 0.43	1201.2 ± 2.2	–	80.4 ± 0.8	2.757 ± 0.077
298.15 K, w1 = 0.573	1263.5 ± 2.8	–	82.2 ± 0.8	4.202 ± 0.12
303.15 K, w1 = 0.072	1033.1 ± 0.9	74.59 ± 1.7	–	1.032 ± 0.032
303.15 K, w1 = 0.143	1066.7 ± 1.1	76.59 ± 1.9	–	1.261 ± 0.037
303.15 K, w1 = 0.286	1134.4 ± 1.7	80.47 ± 1.9	–	1.736 ± 0.048
303.15 K, w1 = 0.43	1198.8 ± 2.2	88.33 ± 2	–	2.485 ± 0.069
303.15 K, w1 = 0.573	1260.5 ± 2.8	98.9 ± 2.2	–	3.685 ± 0.1
308.15 K, w1 = 0.072	–	75.17 ± 1.7	–	–
308.15 K, w1 = 0.143	–	77.62 ± 1.9	–	–
308.15 K, w1 = 0.286	–	81.19 ± 1.9	–	–
308.15 K, w1 = 0.43	–	88.91 ± 2	–	–
308.15 K, w1 = 0.573	–	99.62 ± 2.2	–	–
313.15 K, w1 = 0.072	1028.8 ± 0.9	75.56 ± 1.7	–	0.87 ± 0.029
313.15 K, w1 = 0.143	1061.9 ± 1.1	78.03 ± 1.9	–	1.043 ± 0.032
313.15 K, w1 = 0.286	1129.1 ± 1.6	81.67 ± 1.9	–	1.402 ± 0.041
313.15 K, w1 = 0.43	1193.1 ± 2.2	89.77 ± 2	–	1.996 ± 0.057
313.15 K, w1 = 0.573	1254.4 ± 2.8	100.35 ± 2.5	–	2.927 ± 0.084
318.15 K, w1 = 0.072	–	76.13 ± 1.7	–	–
318.15 K, w1 = 0.143	–	78.65 ± 1.9	–	–
318.15 K, w1 = 0.286	–	82.15 ± 1.9	–	–
318.15 K, w1 = 0.43	–	90.35 ± 2	–	–
318.15 K, w1 = 0.573	–	101.07 ± 2.5	–	–
323.15 K, w1 = 0.072	1024.6 ± 0.9	76.52 ± 1.7	–	0.73 ± 0.026
323.15 K, w1 = 0.143	1056.9 ± 1.1	79.06 ± 1.9	–	0.896 ± 0.029
323.15 K, w1 = 0.286	1123.8 ± 1.6	82.63 ± 1.9	–	1.14 ± 0.035
323.15 K, w1 = 0.43	1187.5 ± 2.2	91.22 ± 2	–	1.767 ± 0.052
323.15 K, w1 = 0.573	1248.5 ± 2.8	101.43 ± 2.5	–	2.556 ± 0.073
328.15 K, w1 = 0.072	–	76.9 ± 1.7	–	–
328.15 K, w1 = 0.143	–	79.47 ± 1.9	–	–
328.15 K, w1 = 0.286	–	83.35 ± 1.9	–	–
328.15 K, w1 = 0.43	–	91.79 ± 2	–	–
328.15 K, w1 = 0.573	–	102.15 ± 2.5	–	–
333.15 K, w1 = 0.072	1019.1 ± 0.9	77.29 ± 1.7	–	0.645 ± 0.024
333.15 K, w1 = 0.143	1051.5 ± 1.1	80.09 ± 1.9	–	0.806 ± 0.028
333.15 K, w1 = 0.286	1118 ± 1.6	83.83 ± 1.9	–	0.989 ± 0.032
333.15 K, w1 = 0.43	1181.6 ± 2.2	92.37 ± 2	–	1.56 ± 0.047
333.15 K, w1 = 0.573	1242.3 ± 2.8	102.51 ± 2.5	–	2.278 ± 0.066
338.15 K, w1 = 0.072	–	77.67 ± 1.7	–	–
338.15 K, w1 = 0.143	–	80.5 ± 1.9	–	–
338.15 K, w1 = 0.286	–	84.31 ± 1.9	–	–
338.15 K, w1 = 0.43	–	92.95 ± 2	–	–
338.15 K, w1 = 0.573	–	102.87 ± 2.5	–	–
343.15 K, w1 = 0.072	1013.9 ± 1	78.06 ± 1.7	–	0.564 ± 0.023
343.15 K, w1 = 0.143	1046.3 ± 1.1	81.12 ± 1.9	–	0.671 ± 0.025
343.15 K, w1 = 0.286	1112.5 ± 1.6	84.79 ± 1.9	–	0.855 ± 0.029
343.15 K, w1 = 0.43	1175.9 ± 2.2	93.24 ± 2	–	1.423 ± 0.044
343.15 K, w1 = 0.573	1236.3 ± 2.7	103.23 ± 2.5	–	2.063 ± 0.06
348.18 K, w1 = 0.072	–	78.25 ± 1.7	–	–
348.18 K, w1 = 0.143	–	81.53 ± 1.9	–	–
348.18 K, w1 = 0.286	–	85.27 ± 1.9	–	–
348.18 K, w1 = 0.43	–	93.81 ± 2.3	–	–
348.18 K, w1 = 0.573	–	103.23 ± 2.5	–	–
353.15 K, w1 = 0.072	1007.8 ± 1	78.44 ± 1.7	–	0.494 ± 0.022
353.15 K, w1 = 0.143	1039.6 ± 1.1	81.74 ± 1.9	–	0.564 ± 0.023
353.15 K, w1 = 0.286	1106 ± 1.7	85.51 ± 1.9	–	0.732 ± 0.027
353.15 K, w1 = 0.43	1169.6 ± 2.2	94.1 ± 2.3	–	1.255 ± 0.041
353.15 K, w1 = 0.573	1229.6 ± 2.7	104.68 ± 2.5	–	1.919 ± 0.058
